The values that follow come from PubChem BioAssay (NCI).

“And” between values parts separate entries of the source, which are not always exact repeats. Equal values may be shown once.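 Cultured in 96-well plates, cells were exposed to test compound for 48 hours across five concentrations. Abbreviation: GI50, concentration required for 50% inhibition of growth. At the TGI there is no net growth.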 The source made the active and inactive calls. No stated cut-off is given here; in the data, active means GI50 below about 0.43 µM; inactive means the rest. A value given as a limit tells only on which side of the number the result lay.

Test systems include BT-549 breast; DLD-1 colon; DMS 114 small cell lung; DMS 273 small cell lung; KM20L2 colon; LXFL 529 NSCLC; SNB-78 CNS; XF 498 CNS.
Holding throughout (assay): NCI anticancer screen, dose series, 48 h

As to `ClCc1cccc(Cn2cnc3c(NC45CC6CC(CC(C6)C4)C5)ncnc32)c1`, in the test on BT-549 breast, the GI50 was 12.8 µM and the TGI is 29.4 µM.
Regarding `Nc1ccc(N(S(=O)(=O)c2ccccc2)S(=O)(=O)c2ccccc2)c(Cl)c1`, the TGI in the test on BT-549 breast is greater than 100 µM.
With `CSc1ccc(C2=NN(C(=O)c3ccc(F)cc3)C(c3ccc(F)cc3)C2)cc1` (stereo not drawn), in the test with BT-549 breast, the GI50 was 15.1 µM and the TGI was found to be 30 µM.
On to `Cc1cc(I)cc(CN(C)CCCN2CCSCC2)c1O`, for which, in the test with BT-549 breast, the GI50 is 14.8 µM and the TGI worked out at 32.6 µM.
As to `COc1cc(C(=O)/C(C)=C/c2c[nH]c3ccccc23)cc(OC)c1OC`, in the test on BT-549 breast, the GI50 is 0.00583 µM.
Take `O=C(O[C@H]1CN[C@H](C#Cc2cc3ncnc(Nc4ccc5c(ccn5Cc5cc(F)ccc5F)c4)c3s2)C1)N1CCOCC1`: in the test with BT-549 breast, the GI50 is 4.32 µM and the TGI was 11 µM.
Consider `CCOC(=O)C(N)C[S][Sn]([CH3])([CH3])[Cl]` (stereo not drawn), for which the GI50 is greater than 100 µM in the test on DLD-1 colon; 97.4 µM with DMS 114 small cell lung; greater than 100 µM in the test on DMS 273 small cell lung; greater than 100 µM with KM20L2 colon; 28.7 µM in the test with LXFL 529 NSCLC; greater than 94.3 µM in the test on SNB-78 CNS. Further, the GI50 in the test on XF 498 CNS is greater than 100 µM. Also, the TGI in the test with DLD-1 colon, in the test on DMS 114 small cell lung, in the test on DMS 273 small cell lung, in the test on KM20L2 colon, with LXFL 529 NSCLC and in the test with SNB-78 CNS was greater than 100 µM throughout. Besides, the TGI in the test on XF 498 CNS is greater than 100 µM.
Turning to `O=c1c2cc(Cl)ccc2oc2ccc(OCCCCCN3CCCCC3)cc12`, in the test on BT-549 breast, the GI50 was 6.26 µM and the TGI was 12.8 µM.
Turning to `CC(=O)c1cccc(N2COC(C)(C)c3nc4ccccc4n3C2)c1`, the TGI with DLD-1 colon, in the test on DMS 114 small cell lung, in the test with DMS 273 small cell lung, in the test with KM20L2 colon, in the test with LXFL 529 NSCLC and in the test with SNB-78 CNS was greater than 100 µM in each case. In the test with XF 498 CNS, the TGI is greater than 100 µM.
Regarding `CN[C@@H](C)C(=O)N[C@H](C(=O)N1CCC[C@H]1C(=O)N[C@H]1c2ccccc2C[C@H]1OCC#CC#CCO[C@@H]1Cc2ccccc2[C@@H]1NC(=O)[C@@H]1CCCN1C(=O)[C@@H](NC(=O)[C@H](C)NC)C1CCCCC1)C1CCCCC1`, the GI50 with BT-549 breast is less than 0.01 µM.
Consider `O=Cc1ccc(-c2cc(C=O)c(-c3cccs3)[nH]2)s1`, for which, in the test with BT-549 breast, the GI50 was greater than 100 µM; the TGI is 75 µM and > 100 µM.
Consider `CC(C)=CCCC(C)c1ccc(C)c2c1OCN(CC1CCNCC1)C2` (stereo not drawn), for which, in the test with BT-549 breast, the GI50 was 16.9 µM and the TGI amounted to 41.6 µM.
`COc1cc(/C=C/C(=O)CC(=O)/C=C/c2cc(OC)c(OC)c(OC)c2)cc(OC)c1OC`: in the test with BT-549 breast, the GI50 is 4.28 µM and the TGI was 22.1 µM.
For the compound `CC1=C2[C@@H](CC1)[C@]1(C)O[C@@](C3CCCCC3)(C[C@H]1OC(=O)CO)[C@H]2OC(=O)/C=C/c1ccccc1`, in the test on BT-549 breast, the GI50 was 0.328 µM and the TGI came to 6.67 µM.
For `CC(=O)c1c(C)[nH]c(-c2nc3ccc(N4CCN(C)CC4)cc3[nH]2)c1-c1ccc(OCC2CCOCC2)cc1`, in that order: 3.4 µM and 18 µM.
In the case of `CC1C[C@@]2(c3ccccc3)C(=O)CCC[C@H]2N1` (stereo partly drawn), the TGI in the test on DLD-1 colon, in the test on DMS 114 small cell lung, with DMS 273 small cell lung, in the test on KM20L2 colon, in the test on LXFL 529 NSCLC and in the test with SNB-78 CNS was greater than 100 µM in each case.
For `Cc1c[nH]c2c(O)cc3c(c12)[C@H](CCl)CN3C(=O)c1cc2cc(NC(=O)Nc3ccc4[nH]c(C(=O)N5C[C@@H](CCl)c6c5cc(O)c5[nH]cc(C)c65)cc4c3)ccc2[nH]1`, the GI50 in the test on DLD-1 colon was 0.000887 ng/mL and 1.4 ng/mL; in the test on DMS 114 small cell lung, 0.000887 ng/mL and 0.888 ng/mL; in the test on DMS 273 small cell lung, 0.000887 ng/mL and 0.888 ng/mL; in the test with SNB-78 CNS, 0.000887 ng/mL and 2.73 ng/mL. Besides, the result in the test with KM20L2 colon and with XF 498 CNS was inactive. Besides, the TGI with SNB-78 CNS is 1.59 µM and 0.00887 µg/mL and 6.72 µg/mL.
`COc1ccc(-c2onc(-c3ccc([N+](=O)[O-])cc3)c2C2=NCCN2)cc1`: the TGI in the test with DLD-1 colon, in the test on KM20L2 colon, in the test with LXFL 529 NSCLC, in the test on SNB-78 CNS and in the test on XF 498 CNS was greater than 100 µM each time.
In the case of `CC(C)c1ccc(C(=O)Nc2nc3ccc(O)cc3s2)cc1`, in the test with BT-549 breast, the GI50 is 2.8 µM and the TGI is greater than 100 µM.
As for `O=[N+]([O-])c1cc(Cl)c(Cl)c([N+](=O)[O-])c1Cl`, in the test with BT-549 breast, the GI50 is 1.81 µM and the TGI came to 3.39 µM.
On the same counts, the results for `Cn1c([N+](=O)[O-])cnc1/C=C1\Oc2ccccc2C1=O` are 0.659 µM and 4.17 µM.
As for `CC/C(C)=C1\CCC(CN2CCOCC2)C1=O` (stereo not drawn), the TGI in the test on DLD-1 colon stood at 27 µM; in the test with DMS 114 small cell lung, 18.6 µM; with DMS 273 small cell lung, 32.4 µM; in the test with KM20L2 colon it was 36.7 µM; with LXFL 529 NSCLC it was 23.7 µM; with SNB-78 CNS it was 50.5 µM. Besides, the TGI in the test with XF 498 CNS amounted to 33.4 µM.
For the compound `COc1ccccc1N1C(=O)/C(=C/c2ccc(N(CCC#N)CCC#N)cc2C)N=C1c1cc([N+](=O)[O-])ccc1Cl`, the TGI in the test with DMS 114 small cell lung, in the test with DMS 273 small cell lung, in the test with KM20L2 colon, in the test with LXFL 529 NSCLC, in the test on SNB-78 CNS and in the test on XF 498 CNS was greater than 100 µM throughout.
Consider `CC(C)(C#N)c1cc(Cn2cncn2)cc(C(C)(C)C#N)c1`, for which, in the test with BT-549 breast, the GI50 is 472 µM and the TGI was greater than 10000 µM.
